Bridges are numbered along the chain shown (N, C = ends). Roman numbers before positions name the chains, in order. Where no end group is shown, it is not given here.
Tested on: normal stroma cells
Test: Cell density, patient-derived stromal cells with autologous PBMC and C24D
Assay type: cell-based, human
Details: autologous PBMCs + C24D; FIGS. 5A-B
Excerpt: Patient-derived tumor primary culture medium: Medium D: DMEM/F12 (1:1, v/v) supplemented with 10% FBS and 1% antibiotics/antimycotic (100×. Medium M: Medium 171 supplemented with 1% MEGS (100×), and 1% antibiotics/antimycotics. Medium DB: mixed from medium D and medium M (1:1, v/v).
Tumor biopsies, all from different patients, were collected after obtaining the patients' consent and were transported to the laboratory. Excess adipose tissue was pared off the tumor samples, following which the samples were sliced into small fragments (approximately 1-2 mm^2) by using a scalpel. The fragments were seeded per 10 cm^2 Petri dishes in DB medium. The Petri dishes were incubated at 37° C. with 5% CO2 and monitored daily to record the time of cell appearance and the cell morphology. The medium was replaced every 3 days. Approximately two weeks after primary culture incubation, cells were trypsinized and cultured in Petri dishes according to the below protocol.
Day 1: 4×10^5 tumor cells from the cell line or tumor and stroma cells derived from patient's biopsies were incubated in the respective growth medium in 6 well plates overnight or Petri dishes. Day 2: 3 hours prior to addition of PBMC of healthy female donors or from autologous patients, DMEM medium was changed to RPMI medium. […]

I: CGHHLLRPRRRKRPHSIPTPILIFRSP / II: CGHHLLRPRRRKRPHSIPTPILIFRSP (disulfide I:1-II:1) [C24D]
effect on normal stroma cells of the same patient: no effect

From US20220120732A1, “TREATMENT OF DISEASES WITH MULTIMERIC PEPTIDES” (Ramot at Tel-Aviv University Ltd., priority 2019, published 2022)
